Assay results as given in the NIST ThermoML archive (doi:10.1016/j.jct.2006.05.007).
Numbers after ± are expanded uncertainties.

Conditions: Liquid

Structure (SMILES): CCOC(C)(C)C [2-ethoxy-2-methylpropane]
- vapor or sublimation pressure (298.25 K, Twin ebulliometer): 16.83 ± 0.042 kPa
- vapor or sublimation pressure (303.13 K, Twin ebulliometer): 20.88 ± 0.042 kPa
- vapor or sublimation pressure (307.44 K, Twin ebulliometer): 25.07 ± 0.043 kPa
- vapor or sublimation pressure (312.55 K, Twin ebulliometer): 30.91 ± 0.044 kPa
- vapor or sublimation pressure (317.29 K, Twin ebulliometer): 37.26 ± 0.045 kPa
- vapor or sublimation pressure (322.74 K, Twin ebulliometer): 45.83 ± 0.046 kPa
- vapor or sublimation pressure (328.3 K, Twin ebulliometer): 56.12 ± 0.048 kPa
- vapor or sublimation pressure (333.56 K, Twin ebulliometer): 67.49 ± 0.05 kPa
- vapor or sublimation pressure (339.17 K, Twin ebulliometer): 81.57 ± 0.053 kPa
- vapor or sublimation pressure (343.23 K, Twin ebulliometer): 93.18 ± 0.057 kPa
- vapor or sublimation pressure (343.89 K, Twin ebulliometer): 95.31 ± 0.057 kPa
- vapor or sublimation pressure (344.57 K, Twin ebulliometer): 97.44 ± 0.057 kPa
- vapor or sublimation pressure (345.25 K, Twin ebulliometer): 99.6 ± 0.057 kPa
- vapor or sublimation pressure (345.92 K, Twin ebulliometer): 101.69 ± 0.057 kPa

Structure (SMILES): CC(C)COC(C)(C)C [isobutyl tert-butyl ether]
- vapor or sublimation pressure (310.61 K, Ebulliometric method (Recirculating still)): 6.234 ± 0.041 kPa
- vapor or sublimation pressure (317.06 K, Ebulliometric method (Recirculating still)): 8.426 ± 0.041 kPa
- vapor or sublimation pressure (322.6 K, Ebulliometric method (Recirculating still)): 10.8 ± 0.041 kPa
- vapor or sublimation pressure (327.65 K, Ebulliometric method (Recirculating still)): 13.43 ± 0.041 kPa
- vapor or sublimation pressure (333.13 K, Ebulliometric method (Recirculating still)): 16.83 ± 0.042 kPa
- vapor or sublimation pressure (338.55 K, Ebulliometric method (Recirculating still)): 20.88 ± 0.042 kPa
- vapor or sublimation pressure (343.33 K, Ebulliometric method (Recirculating still)): 25.07 ± 0.043 kPa
- vapor or sublimation pressure (349 K, Ebulliometric method (Recirculating still)): 30.91 ± 0.043 kPa
- vapor or sublimation pressure (354.26 K, Ebulliometric method (Recirculating still)): 37.26 ± 0.044 kPa
- vapor or sublimation pressure (360.31 K, Ebulliometric method (Recirculating still)): 45.83 ± 0.045 kPa
- vapor or sublimation pressure (366.48 K, Ebulliometric method (Recirculating still)): 56.12 ± 0.047 kPa
- vapor or sublimation pressure (372.35 K, Ebulliometric method (Recirculating still)): 67.49 ± 0.049 kPa
- vapor or sublimation pressure (378.59 K, Ebulliometric method (Recirculating still)): 81.57 ± 0.051 kPa
- vapor or sublimation pressure (383.13 K, Ebulliometric method (Recirculating still)): 93.18 ± 0.054 kPa
- vapor or sublimation pressure (383.92 K, Ebulliometric method (Recirculating still)): 95.31 ± 0.054 kPa
- vapor or sublimation pressure (384.69 K, Ebulliometric method (Recirculating still)): 97.44 ± 0.055 kPa
- vapor or sublimation pressure (385.45 K, Ebulliometric method (Recirculating still)): 99.6 ± 0.055 kPa

Structure (SMILES): CC(C)OC(C)C [diisopropyl ether]
- vapor or sublimation pressure (308.58 K, Twin ebulliometer): 30.91 ± 0.044 kPa
- vapor or sublimation pressure (313.25 K, Twin ebulliometer): 37.26 ± 0.045 kPa
- vapor or sublimation pressure (318.65 K, Twin ebulliometer): 45.83 ± 0.046 kPa
- vapor or sublimation pressure (324.17 K, Twin ebulliometer): 56.12 ± 0.048 kPa
- vapor or sublimation pressure (329.4 K, Twin ebulliometer): 67.49 ± 0.05 kPa
- vapor or sublimation pressure (334.98 K, Twin ebulliometer): 81.57 ± 0.053 kPa
- vapor or sublimation pressure (339.03 K, Twin ebulliometer): 93.18 ± 0.055 kPa
- vapor or sublimation pressure (339.73 K, Twin ebulliometer): 95.31 ± 0.056 kPa
- vapor or sublimation pressure (340.41 K, Twin ebulliometer): 97.44 ± 0.056 kPa
